Data taken from ChEMBL document CHEMBL1201862, “PubChem BioAssay data set” (2004).
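Results reflect a 48-hour exposure of cells in 96-well plates to compound at five concentrations. GI50: concentration for 50% inhibition of growth.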 Active and inactive are the calls of the source. No stated cut-off is given here; in the data, active = GI50 up to about 1.1 µM and inactive = higher.

What was measured:
Assay in all cases: NCI tumour cell line growth inhibition, 48 h
[1] = tested on: OVCAR-4
[2] = tested on: ACHN
[3] = tested on: NCI/ADR-RES
[4] = tested on: IGROV-1
[5] = tested on: NCI-H23
[6] = tested on: RPMI-8226
[7] = tested on: HCT-116
[8] = tested on: CCRF-CEM
[9] = tested on: Hs-578T
[10] = tested on: 786-0
[11] = tested on: M14
[12] = tested on: TK-10
[13] = tested on: K562
[14] = tested on: SN12C
[15] = tested on: UACC-257
[16] = tested on: COLO 205
[17] = tested on: SK-MEL-28
[18] = tested on: UO-31
[19] = tested on: MDA-MB-435
[20] = tested on: SF-268
[21] = tested on: HOP-62
[22] = tested on: HCC 2998
[23] = tested on: HL-60
[24] = tested on: Malme-3M
[25] = tested on: NCI-H226
[26] = tested on: U-251
[27] = tested on: HOP-92
[28] = tested on: MDA-MB-231
[29] = tested on: SK-MEL-5
[30] = tested on: SR
[31] = tested on: A549
[32] = tested on: LOX IMVI
[33] = tested on: DU-145
[34] = tested on: MDA-N
[35] = tested on: A498
[36] = tested on: PC-3
[37] = tested on: CAKI-1
[38] = tested on: KM12
[39] = tested on: EKVX
[40] = tested on: UACC-62
[41] = tested on: SK-OV-3
[42] = tested on: SNB-19
[43] = tested on: SK-MEL-2
[44] = tested on: HCT-15
[45] = tested on: OVCAR-5
[46] = tested on: OVCAR-8
[47] = tested on: SF-295
[48] = tested on: OVCAR-3
[49] = tested on: NCI-H460
[50] = tested on: MCF7
[51] = tested on: SF-539
[52] = tested on: BT-549
[53] = tested on: T47D
[54] = tested on: HT-29
[55] = tested on: MOLT-4
[56] = tested on: NCI-H522
[57] = tested on: SW-620
[58] = tested on: SNB-75

Cc1ccc(N2C(=O)C(O)=C(C(=O)C(C)(C)C)C2c2ccc([N+](=O)[O-])cc2)cc1 (stereo not given)
GI50 [1]: 6.71 µM (inactive) | GI50 [2]: 16.6 µM (inactive) | GI50 [3]: 19.5 µM (inactive) | GI50 [4]: 11.5 µM (inactive) | GI50 [5]: 15.4 µM (inactive) | GI50 [6]: 10.9 µM (inactive) | GI50 [7]: 16 µM (inactive) | GI50 [8]: 26.3 µM (inactive) | GI50 [9]: 16.9 µM (inactive) | GI50 [10]: 16.3 µM (inactive) | GI50 [11]: 18.2 µM (inactive) | GI50 [12]: 36.2 µM (inactive) | GI50 [13]: 23.9 µM (inactive) | GI50 [14]: 15.4 µM (inactive) | GI50 [15]: 15.8 µM (inactive) | GI50 [16]: 15.7 µM (inactive) | GI50 [17]: 21.5 µM (inactive) | GI50 [18]: 29.6 µM (inactive) | GI50 [19]: 17.4 µM (inactive) | GI50 [20]: 13 µM (inactive) | GI50 [21]: 17.3 µM (inactive) | GI50 [22]: 17.7 µM (inactive) | GI50 [23]: 12.3 µM (inactive) | GI50 [24]: 19 µM (inactive) | GI50 [25]: 19.1 µM (inactive) | GI50 [26]: 26.6 µM (inactive) | GI50 [27]: 13.7 µM (inactive) | GI50 [28]: 18.9 µM (inactive) | GI50 [29]: 15.8 µM (inactive) | GI50 [30]: 7.53 µM (inactive) | GI50 [31]: 23.6 µM (inactive) | GI50 [32]: 14.9 µM (inactive) | GI50 [33]: 28.4 µM (inactive) | GI50 [34]: 26 µM (inactive) | GI50 [35]: 29.3 µM (inactive) | GI50 [36]: 29.9 µM (inactive) | GI50 [37]: 3.94 µM (inactive) | GI50 [38]: 16.7 µM (inactive) | GI50 [39]: 26.9 µM (inactive) | GI50 [40]: 14.9 µM (inactive) | GI50 [41]: 20.8 µM (inactive) | GI50 [42]: 19.4 µM (inactive) | GI50 [43]: 24 µM (inactive) | GI50 [44]: 16.2 µM | GI50 [45]: 49.2 µM (inactive) | GI50 [46]: 18.9 µM (inactive) | GI50 [47]: 20.9 µM (inactive) | GI50 [48]: 19.6 µM (inactive) | GI50 [49]: 9.27 µM (inactive) | GI50 [50]: 17.7 µM (inactive) | GI50 [51]: 24.9 µM (inactive) | GI50 [52]: 11.1 µM (inactive) | GI50 [53]: 18.8 µM (inactive) | GI50 [54]: 17.6 µM (inactive) | GI50 [55]: 7.26 µM (inactive)

C=CCN1C[C@@H](C)N([C@@H](c2ccc(C(=O)N(CC)CC)cc2)c2cccc(OC)c2)C[C@@H]1C
GI50 [1]: > 100 µM (inactive) | GI50 [2]: > 100 µM (inactive) | GI50 [3]: > 100 µM (inactive) | GI50 [4]: > 100 µM (inactive) | GI50 [5]: > 100 µM (inactive) | GI50 [6]: > 100 µM (inactive) | GI50 [7]: > 100 µM (inactive) | GI50 [8]: 3.7 µM (inactive) | GI50 [9]: > 100 µM (inactive) | GI50 [10]: > 100 µM (inactive) | GI50 [11]: > 100 µM (inactive) | GI50 [13]: > 100 µM (inactive) | GI50 [14]: > 100 µM (inactive) | GI50 [16]: > 100 µM (inactive) | GI50 [17]: > 100 µM (inactive) | GI50 [18]: > 100 µM (inactive) | GI50 [19]: > 100 µM (inactive) | GI50 [20]: > 100 µM (inactive) | GI50 [21]: > 100 µM (inactive) | GI50 [56]: > 100 µM (inactive) | GI50 [24]: > 100 µM (inactive) | GI50 [25]: > 100 µM (inactive) | GI50 [26]: > 100 µM (inactive) | GI50 [27]: > 100 µM (inactive) | GI50 [28]: > 100 µM (inactive) | GI50 [29]: > 100 µM (inactive) | GI50 [30]: > 100 µM (inactive) | GI50 [31]: > 100 µM (inactive) | GI50 [32]: > 100 µM (inactive) | GI50 [33]: > 100 µM (inactive) | GI50 [34]: > 100 µM (inactive) | GI50 [35]: > 100 µM (inactive) | GI50 [36]: > 100 µM (inactive) | GI50 [37]: > 100 µM (inactive) | GI50 [38]: > 100 µM (inactive) | GI50 [57]: > 100 µM (inactive) | GI50 [39]: > 100 µM (inactive) | GI50 [40]: > 100 µM (inactive) | GI50 [41]: > 100 µM (inactive) | GI50 [42]: > 100 µM (inactive) | GI50 [43]: > 100 µM (inactive) | GI50 [44]: > 100 µM | GI50 [45]: > 100 µM (inactive) | GI50 [46]: > 100 µM (inactive) | GI50 [47]: > 100 µM (inactive) | GI50 [48]: > 100 µM (inactive) | GI50 [50]: 49.8 µM (inactive) | GI50 [51]: > 100 µM (inactive) | GI50 [52]: > 100 µM (inactive) | GI50 [53]: > 100 µM (inactive) | GI50 [54]: > 100 µM (inactive) | GI50 [55]: > 100 µM (inactive)

O=C(CCN1CCCC1)Nc1ccc2sc3ccccc3c(=O)c2n1
GI50 [1]: 13.2 µM (inactive) | GI50 [2]: 11.5 µM (inactive) | GI50 [3]: 13.3 µM (inactive) | GI50 [4]: 15.2 µM (inactive) | GI50 [5]: 13.1 µM (inactive) | GI50 [6]: 12 µM (inactive) | GI50 [7]: 11.5 µM (inactive) | GI50 [8]: 10.2 µM (inactive) | GI50 [9]: 11.8 µM (inactive) | GI50 [10]: 11.7 µM (inactive) | GI50 [11]: 13.2 µM (inactive) | GI50 [12]: > 10 µM (inactive) | GI50 [13]: 13.8 µM (inactive) | GI50 [14]: 10.1 µM (inactive) | GI50 [15]: 12.2 µM (inactive) | GI50 [16]: 11.1 µM (inactive) | GI50 [17]: 14.3 µM (inactive) | GI50 [18]: 11.7 µM (inactive) | GI50 [19]: 12.7 µM (inactive) | GI50 [20]: 17.2 µM (inactive) | GI50 [21]: 12.3 µM (inactive) | GI50 [22]: 12.3 µM (inactive) | GI50 [23]: 10.3 µM (inactive) | GI50 [56]: 10.5 µM (inactive) | GI50 [24]: 13.1 µM (inactive) | GI50 [25]: 13.8 µM (inactive) | GI50 [26]: 12.9 µM (inactive) | GI50 [27]: 18.1 µM (inactive) | GI50 [28]: 13.3 µM (inactive) | GI50 [29]: 11.8 µM (inactive) | GI50 [30]: 8.89 µM (inactive) | GI50 [31]: 12.3 µM (inactive) | GI50 [32]: > 10 µM (inactive) | GI50 [33]: 15.4 µM (inactive) | GI50 [34]: 13.4 µM (inactive) | GI50 [35]: 17.8 µM (inactive) | GI50 [36]: 13.5 µM (inactive) | GI50 [37]: 11.5 µM (inactive) | GI50 [58]: 11.8 µM (inactive) | GI50 [38]: 12.8 µM (inactive) | GI50 [57]: 12.4 µM (inactive) | GI50 [39]: 12.4 µM (inactive) | GI50 [40]: 12.6 µM (inactive) | GI50 [41]: 7.23 µM (inactive) | GI50 [42]: 13.1 µM (inactive) | GI50 [43]: 13.3 µM (inactive) | GI50 [44]: 11.5 µM | GI50 [45]: 12.9 µM (inactive) | GI50 [46]: 11.4 µM (inactive) | GI50 [47]: 14.8 µM (inactive) | GI50 [48]: 14.5 µM (inactive) | GI50 [49]: > 10 µM (inactive) | GI50 [50]: 13 µM (inactive) | GI50 [51]: 12.6 µM (inactive) | GI50 [52]: 13.6 µM (inactive) | GI50 [53]: 19.2 µM (inactive) | GI50 [54]: 4.35 µM (inactive) | GI50 [55]: 4.72 µM (inactive)
